Experimental data reported in US5789403A, “Substituted thiazolo [3,2-a]azepine derivatives” (Eisai Co., Ltd., priority 1994, dated 1998).

How the values were obtained:
[1] = target: T1, ACE (angiotensin I converting enzyme) (Rattus norvegicus, UniProt P47820); experiment: ACE inhibiting activity with rat lung membrane fraction; type: biochemical; settings: substrate Hippuryl-His-Leu, borate buffer pH 8.3, 228 nm
T1 construct: membrane fraction prepared from the lung of rat; from tissue; host or cells: rat lung membrane fraction
T1 sequence (P47820 36-1313): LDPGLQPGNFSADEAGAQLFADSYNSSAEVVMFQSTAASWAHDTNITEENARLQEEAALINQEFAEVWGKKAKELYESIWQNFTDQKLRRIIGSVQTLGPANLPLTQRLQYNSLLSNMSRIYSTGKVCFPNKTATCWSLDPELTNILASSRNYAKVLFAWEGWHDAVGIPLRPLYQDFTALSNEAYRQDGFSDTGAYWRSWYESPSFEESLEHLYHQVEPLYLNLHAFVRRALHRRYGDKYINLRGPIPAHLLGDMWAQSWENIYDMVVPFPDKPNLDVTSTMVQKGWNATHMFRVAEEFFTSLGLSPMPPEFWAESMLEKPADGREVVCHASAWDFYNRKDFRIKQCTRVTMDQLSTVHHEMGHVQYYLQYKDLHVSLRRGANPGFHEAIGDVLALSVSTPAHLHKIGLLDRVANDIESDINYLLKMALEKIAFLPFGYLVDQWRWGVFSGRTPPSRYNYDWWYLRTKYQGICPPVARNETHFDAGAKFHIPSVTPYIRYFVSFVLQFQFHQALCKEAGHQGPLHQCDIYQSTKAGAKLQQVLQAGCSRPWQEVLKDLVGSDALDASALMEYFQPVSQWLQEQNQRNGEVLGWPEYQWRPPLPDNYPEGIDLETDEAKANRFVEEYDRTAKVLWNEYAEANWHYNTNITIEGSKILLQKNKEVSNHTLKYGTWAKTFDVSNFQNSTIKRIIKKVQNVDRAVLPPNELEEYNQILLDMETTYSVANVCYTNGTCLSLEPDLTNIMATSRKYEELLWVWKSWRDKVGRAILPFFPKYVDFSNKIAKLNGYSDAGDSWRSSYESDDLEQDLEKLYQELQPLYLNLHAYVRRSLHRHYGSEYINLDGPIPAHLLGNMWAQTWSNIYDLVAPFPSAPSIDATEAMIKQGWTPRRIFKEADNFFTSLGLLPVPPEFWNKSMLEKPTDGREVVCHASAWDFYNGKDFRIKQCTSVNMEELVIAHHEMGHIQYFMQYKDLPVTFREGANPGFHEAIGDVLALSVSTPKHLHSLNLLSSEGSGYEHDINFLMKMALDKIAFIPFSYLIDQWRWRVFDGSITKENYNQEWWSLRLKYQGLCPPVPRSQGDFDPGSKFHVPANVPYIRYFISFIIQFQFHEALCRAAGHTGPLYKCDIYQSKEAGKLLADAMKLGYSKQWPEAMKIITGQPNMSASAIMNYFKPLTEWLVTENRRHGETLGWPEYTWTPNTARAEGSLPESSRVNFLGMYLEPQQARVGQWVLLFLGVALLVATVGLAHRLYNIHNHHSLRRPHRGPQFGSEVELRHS
Experimental: Determination of ACE inhibiting activities of medicaments with rat lung
ACE inhibiting activity was examined with the membrane fraction prepared from the lung of rat according to the method of Wu-Wong et al. (Characterization of Endthelin Converting Enzyme in Rat Lung, Junshyum R. Wu-Wong, Gerald P. Budzik, Edward M. Devine and Terry J. Opgenorth, Biochem. Biophys. Res. Commun., 1990, 171, 1291-1296.).
The ACE activity was determined by a modification (wherein the pH of the borate buffer was changed to 8.3) of the Cushman-Cheung method (Spectrophotometric Assay and Properties of the Angiotensin-Converting Enzyme of Rabbit Lung., Cushman D. W. and Cheung H. S., 1971, 20, 1637-1648).
The hippurate liberated from Hippuryl-histidylleucine (Hippuryl-His-Leu (Peptidelnstitute lnc., Japan)) in the presence of ACE was extracted with ethyl acetate and the absorbance at a wavelength of 228 nm was determined.
The ACE inhibiting activity was determined by adding the test compound to the above experiment system in final concentrations of 1, 3, 10, 30, 100, 300 and 1000 nM to form an inhibition curve and determining the concentration at which 50% of the activity was inhibited as IC50. [4S-[4α,7α(R*),12bβ]]-7-[(1-oxo-2(S)-thio-3-phenylpropyl)amino]-1,2,3,4,6,7,8,12b-octahydro-6-oxopyrido[2,1-a] [2]benzazepine-4-carboxylic acid (which is a compound disclosed in Japanese Patent Publication-A No. 4-282382) was used as the control compound.

[2] = target: T2, NEP (neutral endpeptidase) (Rattus norvegicus, UniProt P07861); experiment: NEP inhibiting activity with rat kidney cortex membrane fraction; type: biochemical; settings: substrate Benzoyl-Gly-Arg-Arg-2-naphthylamide, 540 nm
T2 construct: membrane fraction prepared from the kidney cortex of rat; from tissue; host or cells: rat kidney cortex membrane fraction
T2 sequence (P07861 1-750): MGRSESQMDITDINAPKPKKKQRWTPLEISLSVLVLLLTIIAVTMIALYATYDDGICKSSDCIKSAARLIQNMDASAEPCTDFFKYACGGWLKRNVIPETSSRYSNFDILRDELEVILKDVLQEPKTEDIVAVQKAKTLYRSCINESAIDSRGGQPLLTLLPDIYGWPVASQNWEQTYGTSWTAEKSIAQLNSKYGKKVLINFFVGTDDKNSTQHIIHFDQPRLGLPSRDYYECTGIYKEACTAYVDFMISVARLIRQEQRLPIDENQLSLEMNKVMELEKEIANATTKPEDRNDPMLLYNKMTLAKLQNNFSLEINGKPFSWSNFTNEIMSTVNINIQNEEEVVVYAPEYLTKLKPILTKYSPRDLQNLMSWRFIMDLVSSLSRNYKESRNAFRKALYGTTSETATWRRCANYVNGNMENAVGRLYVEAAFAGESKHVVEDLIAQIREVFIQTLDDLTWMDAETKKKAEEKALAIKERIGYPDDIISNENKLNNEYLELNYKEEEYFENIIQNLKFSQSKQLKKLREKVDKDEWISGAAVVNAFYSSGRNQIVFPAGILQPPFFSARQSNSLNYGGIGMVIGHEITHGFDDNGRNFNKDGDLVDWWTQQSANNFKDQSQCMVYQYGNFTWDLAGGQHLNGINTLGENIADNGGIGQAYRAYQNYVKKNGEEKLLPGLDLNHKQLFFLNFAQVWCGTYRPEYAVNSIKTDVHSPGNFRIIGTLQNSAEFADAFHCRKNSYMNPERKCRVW
Experimental: Determination of NEP inhibiting activities of medicaments with rat kidney cortex
NEP activity was determined with the membrane fraction prepared from the kidney cortex of rat according to the process of Booth and Kenny (A Rapid Method for the Purification of Microvilli from Rabbit Kidney., Andrew G. Booth and A. John Kenny, Biochem J., 1974, 142, 575-581).
The NEP activity was determined according to the process of Orlowsky and Wilk (Purification and Specificity of a Membrane-Bound Metalloendpeptidase from Bovine Pituitaries., Marian Orlowsky and Shrwin Wilk, Biochemistry, 1981, 20, 4942-4950.) by the following method.
Benzoyl-glycyl-arginyl-arginyl-2-naphthylamide (Benzoyl-Gly-Arg-Arg-2-napththylamide (Nova Biochem, Switzerland)) was used as substrate. The naphthylamine liberated in the presence of the NEP enzyme sample and excess of leucine aminopeptidase (Sigma Chemical Co., U.S.A.) was color-developed with […] (Sigma Chemical Co., U.S.A.) and the absorbance at a wavelength of 540 nm was determined.
The NEP inhibiting activity was determined by adding the test compound to the above experiment system in final concentrations of 1, 3, 10, 30, 100, 300 and 1000 nM to form an inhibition curve and determining the concentration at which 50% of the activity was inhibited as IC50. [4S-(4α,7α(R*), 12bβ]]-7-[(1-oxo-2(S)-thio-3-phenylpropyl)amino]-1,2,3,4,6,7,8,12b-octahydro-6-oxopyrido[2,1-a] [2] benzazepine-4-carboxylic acid (which is a compound disclosed in Japanese Patent Publication-A No. 4-282382) was used as the control compound.

Row | SMILES | IC50 [1] [nM] | IC50 [2] [nM]
1 | CC[C@H](C)[C@H](S)C(=O)N[C@H]1CC[C@H](C)[C@H]2SC[C@@H](C(=O)O)N2C1=O [Example 3, [3R-(3α,6α,9β,9aβ)]-6-[[(2S,3S)-1-Oxo-2-thio-3-methylpentyl]amino]-9-methyl-5-oxo-octahydrothiazolo[3,2-a]azepine-3-carboxylic acid] | 2.5 | 4.3
2 | CC[C@H](C)[C@H](S)C(=O)N[C@H]1C[C@@H](C)C[C@H]2SC[C@@H](C(=O)O)N2C1=O [Example 9, [3R-(3α,6α,8α,9aβ)]-6-[[(2S,3S)-1-Oxo-2-thio-3-methylpentyl]amino]-8-methyl-octahydro-5-oxothiazolo[3,2-a]azepine-3-carboxylic acid] | 5.1 | 13
3 | CC[C@H](C)[C@H](S)C(=O)N[C@H]1C[C@H](C)C[C@H]2SC[C@@H](C(=O)O)N2C1=O [Example 10, [3R-(3α,6α,8β,9aβ)]-6-[[(2S,3S)-1-Oxo-2-thio-3-methylpentyl]amino]-8-methyl-octahydro-5-oxothiazolo[3,2-a]azepine-3-carboxylic acid] | 4.3 | 12
4 | CC[C@H](C)[C@H](S)C(=O)N[C@H]1CC[C@@H](C)[C@H]2SC[C@@H](C(=O)O)N2C1=O [Example 11, [3R-(3α,6α,9α,9aβ)]-6-[[(2S,3S)-1-Oxo-2-thio-3-methylpentyl]amino]-9-methyl-5-oxo-octahydrothiazolo[3,2-a]azepine-3-carboxylic acid] | 2.2 | 6.7
5 | CC[C@H]1CC[C@H](NC(=O)[C@@H](S)[C@@H](C)CC)C(=O)N2[C@@H]1SC[C@H]2C(=O)O [Example 24, [3R-(3α,6α,9β,9aβ)]-6-[[(2S,3S)-1-Oxo-2-thio-3-methylpentyl]amino]-9-ethyl-5-oxo-octahydrothiazolo[3,2-a]azepine-3-carboxylic acid] | 2.5 | 1.5
